Series [1] deals with T1, Estrogen receptor (Homo sapiens, UniProt P03372).
T1 sequence (P03372 whole entry): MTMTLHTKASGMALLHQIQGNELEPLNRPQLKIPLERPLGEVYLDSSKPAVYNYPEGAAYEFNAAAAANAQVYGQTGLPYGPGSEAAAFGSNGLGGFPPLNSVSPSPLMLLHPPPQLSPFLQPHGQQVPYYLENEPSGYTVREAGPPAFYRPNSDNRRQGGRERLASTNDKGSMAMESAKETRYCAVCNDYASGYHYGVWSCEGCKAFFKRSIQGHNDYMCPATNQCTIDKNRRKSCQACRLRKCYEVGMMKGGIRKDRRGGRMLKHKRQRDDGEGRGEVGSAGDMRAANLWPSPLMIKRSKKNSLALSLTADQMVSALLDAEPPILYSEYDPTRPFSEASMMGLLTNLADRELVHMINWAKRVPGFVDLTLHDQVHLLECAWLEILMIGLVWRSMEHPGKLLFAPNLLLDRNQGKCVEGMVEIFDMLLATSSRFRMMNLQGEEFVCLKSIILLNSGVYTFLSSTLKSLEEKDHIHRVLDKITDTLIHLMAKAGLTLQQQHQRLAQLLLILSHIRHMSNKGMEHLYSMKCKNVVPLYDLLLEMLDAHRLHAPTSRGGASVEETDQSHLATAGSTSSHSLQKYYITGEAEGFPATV
The experiment in a line: Binding affinity to ERalpha (unknown origin) by SPR assay. In general terms: SPR reads the build-up and loss of mass on a sensor chip optically.

A short description of series [2]: Half life in rat at 5 mg/kg, ig. It is filed as ADME, organism-based. Particulars: in vivo, po.
The nature of series [3]: Clearance in rat at 5 mg/kg, ig. It is filed as ADME, organism-based. Particulars: in vivo, po.
Series [4] deals with A549. The experiment in a line: Induction of apoptosis in human A549 cells assessed as viable cells at 9 uM incubated for 24 hrs by annexin V-FITC and propidium iodide staining based flow cytometry analysis (reference value: 97.7 %). It is filed as functional. The conditions noted are these: read-out: Activity. Background: In flow cytometry, cells or beads pass a laser one at a time.

In series [5] the target is T2, Interleukin-6 receptor subunit beta (Homo sapiens) (UniProt P40189).
T2 sequence (whole entry): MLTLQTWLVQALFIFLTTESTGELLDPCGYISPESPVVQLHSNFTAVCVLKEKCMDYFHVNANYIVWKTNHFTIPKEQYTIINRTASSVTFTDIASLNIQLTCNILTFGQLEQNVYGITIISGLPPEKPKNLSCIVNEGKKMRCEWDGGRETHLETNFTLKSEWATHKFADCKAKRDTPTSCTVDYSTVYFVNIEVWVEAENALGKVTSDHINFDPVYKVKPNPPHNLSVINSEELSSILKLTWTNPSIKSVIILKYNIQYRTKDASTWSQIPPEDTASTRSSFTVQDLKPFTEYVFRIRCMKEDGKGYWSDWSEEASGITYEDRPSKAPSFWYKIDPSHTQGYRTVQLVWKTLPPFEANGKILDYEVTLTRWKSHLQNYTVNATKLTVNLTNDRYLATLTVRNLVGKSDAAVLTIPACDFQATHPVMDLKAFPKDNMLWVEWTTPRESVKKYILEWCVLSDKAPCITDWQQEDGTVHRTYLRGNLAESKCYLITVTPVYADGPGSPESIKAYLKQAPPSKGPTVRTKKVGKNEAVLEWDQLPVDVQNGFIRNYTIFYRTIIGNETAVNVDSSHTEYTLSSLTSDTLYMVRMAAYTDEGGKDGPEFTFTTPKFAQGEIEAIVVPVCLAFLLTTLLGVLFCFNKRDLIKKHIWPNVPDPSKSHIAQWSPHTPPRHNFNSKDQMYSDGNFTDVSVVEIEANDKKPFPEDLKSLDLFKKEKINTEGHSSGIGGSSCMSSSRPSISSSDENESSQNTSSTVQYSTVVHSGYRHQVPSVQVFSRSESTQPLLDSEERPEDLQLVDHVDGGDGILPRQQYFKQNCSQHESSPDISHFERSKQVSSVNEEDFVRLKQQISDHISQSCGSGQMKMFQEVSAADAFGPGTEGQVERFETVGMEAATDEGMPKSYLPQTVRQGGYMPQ
The experiment in a line: Binding affinity to immobilized GP130 (unknown origin) assessed as response unit at 20 uM by SPR analysis.

Series [6] concerns A549. The experiment in a line: Inhibition of colony formation in human A549 cells incubated for 24 hrs by crystal violet staining based assay. Type of series: functional, cell-based. Particulars: dose 2-10 µM.
Series [7] in a line: Volume of distribution in rat at 0.5 mg/kg, iv. Type of series: ADME, organism-based. The conditions noted are these: in vivo.
For series [8], the target named is T2, Interleukin-6 receptor subunit beta (Homo sapiens). The experiment in a line: Inhibition of GP130 in human A549 cells assessed as decrease in IL6-induced STAT3 phosphorylation at Y705 residue at 9 uM incubated for 24 hrs by western blot analysis. It is filed as cell-based.
Series [9] relates to A549. Briefly: Antiproliferative activity against human A549 cells assessed as cell growth inhibition measured after 24 hrs by MTT assay. It is filed as functional, cell-based. Particulars: A549, 24 h. (In general: Tetrazolium assays rely on reduction of a dye to a coloured formazan, in cell work by metabolically active cells.)
Series [10] deals with A549. The experiment in a line: Induction of apoptosis in human A549 cells assessed as early apoptotic cells at 9 uM incubated for 24 hrs by annexin V-FITC and propidium iodide staining based flow cytometry analysis (reference value: 0.5 %). It is filed as functional.
Series [11] concerns A549. Briefly: Induction of apoptosis in human A549 cells assessed as necrotic cells at 9 uM incubated for 24 hrs by annexin V-FITC and propidium iodide staining based flow cytometry analysis (reference value: 0.4 %). Type of series: functional.
Series [12] in a line: AUC (0 to t) in rat at 5 mg/kg, ig. Type of series: ADME, organism-based. Also noted: dose 5 mg/kg. The conditions noted are these: in vivo, po.
The nature of series [13]: Acute toxicity in ICR mouse assessed as mortality at 120 mg/kg measured after 2 weeks. Type of series: organism-based. The conditions noted are these: in vivo, 336 h.
Series [14] has as its system A549. Briefly: Induction of apoptosis in human A549 cells assessed as viable cells at 3 uM incubated for 24 hrs by annexin V-FITC and propidium iodide staining based flow cytometry analysis (reference value: 97.7 %). It is filed as functional. The conditions noted are these: read-out: Activity.
Series [15] deals with T2, Interleukin-6 receptor subunit beta (Homo sapiens). Briefly: Binding affinity to GP130 in human A549 cell lysates assessed as decrease in pronase mediated protein degradation by measuring increase in abundance of GP130 band at 100 to 1000 uM preincubated for 1 hr followed by pronase addition for 30 mins by DARTS assay. The conditions noted are these: dose 100-1000 µM, time 90.0 min. Type of series: subcellular.

Series [16] has as its system Mus musculus. The experiment in a line: Inhibition of phosphorylated STAT3 levels in tumor tissue of nude mouse xenografted with human A549 cells at 10 to 20 mg/kg, ip administered daily for 21 days by western blot analysis. It is filed as functional, organism-based. Particulars: dose 10-20 mg/kg, time 21.0 day.
Series [17] has as its target T2, Interleukin-6 receptor subunit beta (Homo sapiens). Briefly: Inhibition of GP130 in human A549 cells assessed as reduction in survivin protein expression after 24 hrs by Western blot analysis. It is filed as cell-based. Particulars: dose 3-9 µM.
The subject of series [18] is A549. Briefly: Antimigratory activity against human A549 cells assessed as reduction in cell migration measured after 24 hrs by scratch wound healing assay. It is filed as functional, cell-based. The conditions noted are these: dose 3-6 µM.
A short description of series [19]: Bioavilability in rat at 5 mg/kg, ig. Type of series: ADME, organism-based. Particulars: in vivo, po.
Series [20] is described as follows: Mean residence time in rat at 0.5 mg/kg, iv. Type of series: ADME, organism-based. Particulars: in vivo.
Series [21] relates to A549. The experiment in a line: Induction of ROS generation in human A549 cells assessed as fold increase in ROS level at 9 uM after 24 hrs by DCFH-DA staining based flow cytometric analysis relative to control. Type of series: functional.
Series [22] in a line: AUC (0 to t) in rat at 0.5 mg/kg, iv. Particulars: in vivo. It is filed as ADME, organism-based. Also noted: dose 0.5 mg/kg.
For series [23], the system named is A549. The experiment in a line: Induction of ROS generation in human A549 cells assessed as fold increase in ROS level at 3 uM after 24 hrs by DCFH-DA staining based flow cytometric analysis relative to control. It is filed as functional.

The structures appear in SMILES notation. Active and inactive are the calls of the source. No cut-off for these calls is given here.

The molecule `NC(=O)N1N=C(c2ccc(C(F)(F)F)cc2)CC1c1cn(Cc2ccc(OCCN3CCCCCC3)cc2)c2ccc(Br)cc12` (stereo not drawn) gave a Kd in series [1] of 47.2 µM. Further, in series [2], the half-life is 9.8 h. Moreover, in series [3], the CL amounted to 14.8 mL/min/kg. Moreover, the viability at 9 µM in series [4] was 60.6%. Further, the Activity is 28.3 RU in series [5]; 3.1% in series [10]; 2.6% in series [11]; “Non-Toxic” in [13]; “Dose-dependent effect” in series [18]. Moreover, the inhibition entry in series [6] and in series [17] was “Dose-dependent effect” in each case. The Vd in series [7] was 14.6 L/kg. The result in series [8] and in [15] was Active. Moreover, in [9], the IC50 amounted to 4.46 µM. Moreover, the values for the AUC(0-t) in [12] and in series [22] were 304 ng·h/mL and 468 ng·h/mL, respectively. In addition, the viability at 3 µM in series [14] was 96.3%. Besides, the inhibition entry in series [16] was “Active”. Moreover, the bioavailability in [19] came out at 5.6%. In [20], this molecule returned an MRT of 13.7 h. Further, the entries for the “fold change (FC)” value in [21] and in [23] were 6.28 and 1.93, respectively.

As a reminder, the Kd is a measure of binding affinity in units of concentration. The low end stands for higher affinity, the high end for lower affinity. As a reminder, the half-life is the time in which the quantity being followed falls by half. A higher half-life goes with slow loss. By Vd is commonly meant a proportionality between amount in the body and measured concentration, not a real space. Read a low Vd as confinement near the circulation. What is called IC50 is the point on the concentration scale where inhibition reaches its midpoint. Usually AUC(0-t) stands for the area under the concentration-time curve up to a stated or last time point. In general, bioavailability refers to dose-corrected exposure relative to a reference, in per cent. Lower therefore signals poor availability. One may read the MRT as a mean duration of stay, worked out from the concentration-time curve.
